Measured values taken from ChEMBL document CHEMBL3351326, “Discovery of substituted 6-pheny-3H-pyridazin-3-one derivatives as novel c-Met kinase inhibitors” (Bioorg Med Chem Lett, 2014).

Columns and labels:
[1] = Cytotoxicity against human U87MG cells after 72 hrs by WST8 assay; type: functional, cell-based, U-87MG ATCC; details: U-87 MG
cells = details: Homo sapiens, Hs746T, 72 h
Description: Cytotoxicity against human Hs 746T cells after 72 hrs by WST8 assay

NCI-H1993 = assay: Cytotoxicity against human NCI-H1993 cells after 72 hrs by WST8 assay; details: NCI-H1993, 72 h
[2] = Cytotoxicity against human NCI-H3122 cells after 72 hrs by WST8 assay; details: NCI-H3122, 72 h

`O=c1ccc(-c2ccc(F)c(Cl)c2)nn1C[C@@H]1CN(c2ncc(-c3cnn(C4CCNCC4)c3)cn2)CCO1` gave an IC50 [1] of 1.2 µM, an IC50 (cells) of 71 nM and an IC50 (NCI-H1993) of 790 nM. It also gave an IC50 [2] of 1.7 µM.
In the case of `Cn1cc(-c2cnc(N3CCO[C@H](Cn4nc(-c5ccc(OCc6ccccc6)cc5)ccc4=O)C3)nc2)cn1`, the IC50 [1] is reported as 7.6 µM, the IC50 (cells) is reported as 3020 nM and the IC50 (NCI-H1993) is reported as 4100 nM. It also gave an IC50 [2] of over 10 µM.
For `N#Cc1cccc(-c2ccc(=O)n(C[C@@H]3CN(c4ncc(-c5cnn(C6CCNCC6)c5)cn4)CCO3)n2)c1`, the IC50 [1] was over 10 µM, the IC50 (cells) was 1.2 nM and the IC50 (NCI-H1993) was 110 nM. It also gave an IC50 [2] of over 10 µM.
`O=c1ccc(-c2cc(F)cc(F)c2)nn1C[C@@H]1CN(c2ncc(-c3cnn(C4CCNCC4)c3)cn2)CCO1` showed an IC50 [1] of 3.2 µM, an IC50 (cells) of 450 nM and an IC50 (NCI-H1993) of 1600 nM. The IC50 [2] was 1.9 µM.
In the case of `O=c1ccc(-c2cccc(Cl)c2)nn1C[C@@H]1CN(c2ncc(-c3cnn(C4CCNCC4)c3)cn2)CCO1`, the IC50 [1] is reported as 9.9 µM, the IC50 (cells) is reported as 750 nM and the IC50 (NCI-H1993) is reported as 3400 nM. It also gave an IC50 [2] of over 10 µM.
`O=c1ccc(-c2cccc(C(F)(F)F)c2)nn1C[C@@H]1CN(c2ncc(-c3cnn(C4CCNCC4)c3)cn2)CCO1` gave an IC50 [1] of 2.5 µM, an IC50 (cells) of 84 nM and an IC50 (NCI-H1993) of 1300 nM. For the same compound, the IC50 [2] was 1.4 µM.
For `O=c1ccc(-c2cc(F)c(F)c(F)c2)nn1C[C@@H]1CN(c2ncc(-c3cnn(C4CCNCC4)c3)cn2)CCO1`, the IC50 [1] was 1.5 µM, the IC50 (cells) was 230 nM and the IC50 (NCI-H1993) was 1200 nM. It also gave an IC50 [2] of 1.5 µM.
`O=c1ccc(-c2cccc(F)c2)nn1C[C@@H]1CN(c2ncc(-c3cnn(C4CCNCC4)c3)cn2)CCO1` showed an IC50 [1] of 4.9 µM, an IC50 (cells) of 220 nM and an IC50 (NCI-H1993) of 3500 nM. It also gave an IC50 [2] of 7.5 µM.
`O=c1ccc(-c2cccc(F)c2)nn1C[C@@H]1CN(c2ncc(-c3cnn(C4CCN(CCO)CC4)c3)cn2)CCO1` showed an IC50 [1] of 3.4 µM, an IC50 (cells) of 460 nM and an IC50 (NCI-H1993) of 3200 nM. It also gave an IC50 [2] of 3.3 µM.
`O=c1ccc(-c2ccc(F)cc2)nn1C[C@@H]1CN(c2ncc(-c3cnn(C4CCN(CCO)CC4)c3)cn2)CCO1` gave an IC50 [1] of over 10 µM, an IC50 (cells) of 280 nM and an IC50 (NCI-H1993) of 3800 nM. It also gave an IC50 [2] of over 10 µM.
For `O=c1ccc(-c2cc(F)c(F)c(F)c2)nn1C[C@@H]1CN(c2ncc(-c3cnn(C4CCN(CCO)CC4)c3)cn2)CCO1`, the IC50 [1] was 4.07 µM, the IC50 (cells) was 190 nM and the IC50 [2] was over 10 µM.
`CN1CCC(n2cc(-c3cnc(N4CCO[C@H](Cn5nc(-c6cccc(F)c6)ccc5=O)C4)nc3)cn2)CC1` gave an IC50 [1] of 3.4 µM, an IC50 (cells) of 460 nM and an IC50 (NCI-H1993) of 3200 nM. The IC50 [2] was 3.3 µM.
For `CN1CCC(n2cc(-c3cnc(N4CCO[C@H](Cn5nc(-c6cc(F)c(F)c(F)c6)ccc5=O)C4)nc3)cn2)CC1`, the IC50 [1] was 9.1 µM, the IC50 (cells) was 480 nM and the IC50 (NCI-H1993) was 3600 nM. The IC50 [2] was 7.6 µM.
`CN1CCC(n2cc(-c3cnc(N4CCO[C@H](Cn5nc(-c6ccc(F)c(F)c6)ccc5=O)C4)nc3)cn2)CC1` showed an IC50 [1] of over 10 µM, an IC50 (cells) of 940 nM and an IC50 (NCI-H1993) of 5700 nM. It also gave an IC50 [2] of over 10 µM.
`CN1CCC(n2cc(-c3cnc(N4CCO[C@H](Cn5nc(-c6ccc(F)c(Cl)c6)ccc5=O)C4)nc3)cn2)CC1` showed an IC50 [1] of 1.5 µM, an IC50 (cells) of 14 nM and an IC50 (NCI-H1993) of 1200 nM. The IC50 [2] was 1.4 µM.
`Cn1cc(-c2cnc(N3CCO[C@H](Cn4nc(-c5cccc(C#N)c5)ccc4=O)C3)nc2)cn1` gave an IC50 [1] of over 1 µM, an IC50 (cells) of 0.7 nM and an IC50 (NCI-H1993) of 10 nM. For the same compound, the IC50 [2] was over 1 µM.
Compound `N#Cc1cccc(-c2ccc(=O)n(C[C@@H]3CN(c4ncc(-c5cnn(CCOC6CCCCO6)c5)cn4)CCO3)n2)c1` (some centres undefined) has an IC50 [1] of over 10 µM, an IC50 (cells) of 460 nM and an IC50 (NCI-H1993) of 2600 nM. The IC50 [2] was over 10 µM.
`N#Cc1cccc(-c2ccc(=O)n(C[C@@H]3CN(c4ncc(-c5cnn(CCO)c5)cn4)CCO3)n2)c1` showed an IC50 [1] of over 10 µM, an IC50 (cells) of 180 nM and an IC50 (NCI-H1993) of 1500 nM. It also gave an IC50 [2] of over 10 µM.
For `CN1CCC(COc2cnc(N3CCO[C@H](Cn4nc(-c5cccc(C#N)c5)ccc4=O)C3)nc2)CC1`, the IC50 [1] was over 10 µM, the IC50 (cells) was 430 nM and the IC50 (NCI-H1993) was 2400 nM. For the same compound, the IC50 [2] was over 10 µM.
Compound `N#Cc1cccc(-c2ccc(=O)n(C[C@@H]3CN(c4ncc(-c5cnn(CC6CCN(CCO)CC6)c5)cn4)CCO3)n2)c1` has an IC50 [1] of over 10 µM, an IC50 (cells) of 3.4 nM and an IC50 (NCI-H1993) of 2100 nM. For the same compound, the IC50 [2] was over 10 µM.
For `N#Cc1cccc(-c2ccc(=O)n(C[C@@H]3CN(c4ncc(C5=CCNCC5)cn4)CCO3)n2)c1`, the IC50 [1] was 9.7 µM, the IC50 (cells) was 740 nM and the IC50 (NCI-H1993) was 3800 nM. For the same compound, the IC50 [2] was over 10 µM.
With `CN1CC=C(c2cnc(N3CCO[C@H](Cn4nc(-c5cccc(C#N)c5)ccc4=O)C3)nc2)CC1` the IC50 [1] was over 10 µM, the IC50 (cells) was 1200 nM and the IC50 (NCI-H1993) was 4100 nM. It also gave an IC50 [2] of over 10 µM.
`N#Cc1cccc(-c2ccc(=O)n(C[C@@H]3CN(c4ncc(C5=CCN(CCO)CC5)cn4)CCO3)n2)c1` gave an IC50 [1] of over 10 µM, an IC50 (cells) of 210 nM and an IC50 (NCI-H1993) of 2500 nM. It also gave an IC50 [2] of over 10 µM.
`N#Cc1cccc(-c2ccc(=O)n(C[C@@H]3CN(c4ncc(-c5ccc(OCCN6CCOCC6)cc5)cn4)CCO3)n2)c1` showed an IC50 [1] of 3.4 µM, an IC50 (cells) of 410 nM and an IC50 (NCI-H1993) of 1800 nM. For the same compound, the IC50 [2] was over 10 µM.
Compound `N#Cc1cccc(-c2ccc(=O)n(C[C@@H]3CN(c4ncc(-c5ccc(OCCN6CCOCC6)c(Cl)c5)cn4)CCO3)n2)c1` has an IC50 [1] of 1.4 µM, an IC50 (cells) of 1420 nM and an IC50 (NCI-H1993) of 1200 nM. The IC50 [2] was over 10 µM.
`N#Cc1cccc(-c2ccc(=O)n(C[C@@H]3CN(c4ncc(-c5ccnc(F)c5)cn4)CCO3)n2)c1` gave an IC50 [1] of over 10 µM, an IC50 (cells) of 7150 nM and an IC50 (NCI-H1993) of 7400 nM. It also gave an IC50 [2] of over 10 µM.
`CN1CCN(c2ccc(-c3cnc(N4CCO[C@H](Cn5nc(-c6cccc(C#N)c6)ccc5=O)C4)nc3)cn2)CC1` gave an IC50 [1] of 1.6 µM, an IC50 (cells) of 650 nM and an IC50 (NCI-H1993) of 1300 nM. For the same compound, the IC50 [2] was 1.4 µM.
In the case of `N#Cc1cccc(-c2ccc(=O)n(C[C@@H]3CN(c4ncc(-c5ccc(OCCN6CCOCC6)nc5)cn4)CCO3)n2)c1`, the IC50 (cells) is reported as 740 nM, the IC50 (NCI-H1993) is reported as 3700 nM and the IC50 [2] is reported as 9.8 µM.
`N#Cc1cccc(-c2ccc(=O)n(C[C@@H]3CN(c4ncc(-c5cnn(C6CCN(C7CCOCC7)CC6)c5)cn4)CCO3)n2)c1` showed an IC50 [1] of over 10 µM, an IC50 (cells) of 13 nM and an IC50 (NCI-H1993) of 230 nM. The IC50 [2] was over 10 µM.
